{"source": "paper PMC12081876", "about": "“Identification of PTGR2 inhibitors as a new therapeutic strategy for diabetes and obesity” (EMBO Molecular Medicine, 2025)", "key": {"[1]": {"tested_on": "PPARγ-null 3T3-L1 clones rescued with wild-type mPPARγ", "assay": "Insulin-stimulated glucose uptake in PPARγ-null 3T3-L1 clones rescued with wild-type mPPARγ", "format": "cell-based, mouse", "conditions": "for insulin-stimulated glucose uptake, Fig 1P left panel replicates: rescued with wild-type mPPARγ", "procedure": "(§1) Gene editing was performed in 3T3-L1 preadipocytes using the clustered regularly interspaced short palindromic repeats (CRISPR)/Cas9 system. Two single-guide RNAs (sgRNA) (Appendix Table S5) targeting exon 6 of mouse Pparγ were designed using a web-based design tool (http://crispr.mit.edu/). These oligonucleotides were cloned into the pSurrogate reporter and pAll-Cas9.Ppuro vector obtained from Academia Sinica, Taiwan. The pSurrogate reporter contains an EGFP and an out-of-frame mCherry downstream of the sgRNA; the pAll-Cas9.Ppuro vector expresses Cas9 nuclease and sgRNA. Once a double-strand breaking at the target site in pSurrogate reporter plasmid was created by Cas9, insertions and deletions (indels) could be introduced at the cleaved site. The indels cause frameshifts and result in the expression of the mCherry gene. 3T3-L1 preadipocytes were co-transfected with pSurrogate reporter and pAll-Cas9.Ppuro vectors at 80-90% confluency using PolyJet™ transfection reagent (cat. no. SL100688, SignaGen Laboratories, USA). Two days after transfection, EGFP/mCherry double-positive cells were enriched by fluorescent-activated cell sorting. Single cells were isolated and expanded. The genomic DNA was amplified by PCR and sequenced to confirm the knockout cell lines. The primer sequences are shown in Appendix Table S5.\n(§2) The mPPARγ C313A DNA sequence was amplified from pCMV6-Pparg C313A and subcloned into the pLVX-IRES-Neo vector with XhoI/NotI restriction sites. The lentiviral expression plasmids, pMD.G, and pCMVΔR8.91 (RNAi Core, Academia Sinica, Taiwan), were co-transfected into HEK293T cells. […] HSP70 was probed with an anti-HSP70 antibody (cat. no. ab45133, Abcam) as a loading control.\n(§3) Differentiated 3T3-L1 cells were starved with serum-free DMEM containing 0.2% BSA (cat. no. A9647, Sigma-Aldrich). […] Uptake of 2DG was terminated by rapidly removing medium and washing with ice-cold PBS three times. Cells were lysed with 0.1% SDS, and the radioactivity was measured using a liquid scintillation counter. Insulin-mediated glucose uptake was calculated by subtracting insulin-treated glucose uptake with basal glucose uptake."}, "[2]": {"tested_on": "PPARγ-null 3T3-L1 clones rescued with mutant mPPARγ (C313A)", "assay": "Insulin-stimulated glucose uptake in PPARγ-null 3T3-L1 clones rescued with mutant mPPARγ (C313A)", "format": "cell-based, mouse", "conditions": "for insulin-stimulated glucose uptake, Fig 1P right panel replicates: rescued with mPPARγ C313A", "procedure": "as §1, §2, §3"}, "[3]": {"tested_on": "HFHSD-fed obese C57BL6/J mice", "assay": "Tissue weights (fat pads, liver, BAT)", "format": "in vivo, mouse"}, "[4]": {"tested_on": "HFHSD-fed obese C57BL6/J mice", "assay": "Fasting glucose in HFHSD-fed mice", "format": "in vivo, mouse", "parameters": "Fasting glucose, Average / Fasting glucose (individual mouse): unit not given here", "conditions": "Figure 5K, 100 mg/kg/day", "procedure": "Ptgr2^+/+ and Ptgr2^−/− mice were created by the Transgenic Mouse Model Core Facility of the National Core Facility for Biopharmaceuticals, Ministry of Science and Technology, Taiwan and the Animal Resources Laboratory of National Taiwan University Centers of Genomic and Precision Medicine. C57BL6/J mice were purchased from National Laboratory Animal Center. All animal experiments were performed according to institutional ethical guidelines and were approved by the Institutional Animal Care and Use Committee (IACUC) of National Taiwan University Medical College (IACUC No.: 20140456). All mice were housed under standard conditions at 23 °C and 12/12 h. light/dark (7 AM–7 PM) cycle in animal centers of the National Taiwan University Medical College, which is accredited by the Association for Assessment and Accreditation of Laboratory Animal Care International (AAALAC). Mice were provided shelters and sticks weekly. We used adequate anesthetic procedure to reduce pain, suffering and distress according to our animal center regulation. We reported expected or unexpected adverse events to the veterinarian of our animal center. The humane endpoints include 20% weight loss, rough hair coat, hunched posture, lethargy or persistent, or any condition interfering with eating or drinking. Eight-week-old male mice were fed on either a high-fat high-sucrose diet (HFHSD) (cat. no. D12331, Research Diets) or a regular chow diet (cat no. 5001, Lab Diet). BPRPT0245 was dissolved 3% dimethylacetamide and 10% cremophor in water and administered daily to HFHSD-fed obese C57BL6/J mice by oral gavage (100 mg/kg/day)."}, "hPTGR2": {"biological_target": "hPTGR2 (Homo sapiens, UniProt Q8N8N7)", "sequence (Q8N8N7 whole entry)": "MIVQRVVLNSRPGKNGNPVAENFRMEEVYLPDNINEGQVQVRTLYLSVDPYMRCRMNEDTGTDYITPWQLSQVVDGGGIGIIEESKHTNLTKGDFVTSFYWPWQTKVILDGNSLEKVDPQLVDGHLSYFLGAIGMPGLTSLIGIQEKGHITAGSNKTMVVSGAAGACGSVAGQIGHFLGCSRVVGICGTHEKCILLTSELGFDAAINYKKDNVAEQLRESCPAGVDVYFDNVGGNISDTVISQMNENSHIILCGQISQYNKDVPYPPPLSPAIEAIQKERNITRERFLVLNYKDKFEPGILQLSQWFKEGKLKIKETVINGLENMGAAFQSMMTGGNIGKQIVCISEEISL", "assay": "15-keto-PGE2-dependent PPARγ trans-activation in PTGR2-transfected HEK293T cells", "format": "cell-based", "parameters": "expressed in transfected cells; host or cells: HEK293T", "conditions": "(+) Ptgr2", "from_the_text": "Based on these findings from the Ptgr2^−/− mice, we next searched for druggable chemical inhibitors that can effectively suppress human PTGR2 (hPTGR2) enzymatic activity. Using a high-throughput screening of 12,500 chemicals, we identified 31 hits and generated 282 derivatives using a molecular hybridization strategy among the hits. The in vitro IC50 (the half-maximal inhibitory concentration), EC50 (the concentration for half-maximal effect), and the compound’s activity to restore 15-keto-PGE2-dependent PPARγ trans-activation in HEK293T cells expressing recombinant PTGR2 were profiled.\nGal4-PPARγ/UAS-LUC reporter assay was conducted as previously described (Wu et al, [2008]) with minor modifications. Briefly, HEK293T cells were seeded in 24-well plates at 1 × 10^5 cells/well. After 24-h growth, a DNA solution containing UASG reporter construct, GAL4-PPAR expression plasmid, and TK-Rluc (Renilla luciferase) reporter construct (internal control) was transfected using TurboFect™ transfection reagent (cat. no. R0532, Thermo Fisher). Cells were treated and harvested after another 24 and 48 h, respectively. Luciferase activity was measured using Luc-Pair™ Duo-Luciferase HS Assay Kit (cat. no. LF600, Promega) and normalized with the TK reporter signal."}, "[5]": {"conditions": "Figure 2J, individual mice, listed as 15kPGE2, in g (unit assumed)"}}, "note": "Several values for one entry are separate records, joined by “and”; a condition that tells them apart may be missing. Equal values may be shown once.", "data": [{"compound": "CCCCCC(=O)CC[C@H]1[C@H](O)CC(=O)[C@@H]1C/C=C\\CCCC(=O)O", "note": "[13,14-dihydro-15-keto-PGE2]", "values": [{"measurement": "insulin-stimulated glucose uptake, Fig 1P left panel replicates", "setting": "[1]; 1314-dihydro-15kPGE2 5", "result": "0.5765 and 0.8817 and 0.585 and 1.089"}, {"measurement": "insulin-stimulated glucose uptake, Fig 1P right panel replicates", "setting": "[2]; 1314-dihydro-15kPGE2 5", "result": "1.243 and 2.598 and 0.703"}]}, {"compound": "CCCCCC(=O)/C=C/[C@H]1[C@H](O)CC(=O)[C@@H]1C/C=C\\CCCC(=O)O", "note": "[15-keto-PGE2, 15-keto-prostaglandin E2]", "values": [{"measurement": "insulin-stimulated glucose uptake, Fig 1P left panel replicates", "setting": "[1]; 15kPGE2 1", "result": "0.8065 and 0.6857 and 0.06677 and 0.8595"}, {"measurement": "insulin-stimulated glucose uptake, Fig 1P left panel replicates", "setting": "[1]; 15kPGE2 5", "result": "1.281 and 2.22 and 0.9527 and 1.646"}, {"measurement": "insulin-stimulated glucose uptake, Fig 1P left panel replicates", "setting": "[1]; 15kPGE2 10", "result": "2.206 and 2.06 and 1.8139 and 2.125"}, {"measurement": "insulin-stimulated glucose uptake, PPARγ-null clone rescued with wild-type mPPARγ", "setting": "[1]; clone #1296", "result": "enhanced insulin-stimulated glucose uptake in clone # 1296 when rescued with wild-type mPPARγ"}, {"measurement": "insulin-stimulated glucose uptake, Fig 1P right panel replicates", "setting": "[2]; 15kPGE2 1", "result": "0.9792 and 1.801 and 3.6878 and 1.466"}, {"measurement": "insulin-stimulated glucose uptake, Fig 1P right panel replicates", "setting": "[2]; 15kPGE2 5", "result": "0.4664 and 1.615 and 2.026 and 0.6338"}, {"measurement": "insulin-stimulated glucose uptake, Fig 1P right panel replicates", "setting": "[2]; 15kPGE2 10", "result": "0.2762 and 1.684 and 2.97 and 1.874"}, {"measurement": "insulin-stimulated glucose uptake, PPARγ-null clone rescued with mutant mPPARγ (C313A)", "setting": "[2]; clone #1296", "result": "not when rescued with mutant mPPARγ (C313A)"}, {"measurement": "White fat mass", "setting": "[3]; 40 mg/kg/day ip, 3 weeks, HFHSD-fed mice, vs vehicle", "result": "reduced"}, {"measurement": "BAT weight", "setting": "[3]; [5]", "result": "0.1049 and 0.0893 and 0.0681 and 0.1024 and 0.0901 and 0.0904 and 0.0815 and 0.0934 and 0.1303 and 0.0871 and 0.1289 and 0.0981 and 0.1279"}, {"measurement": "gonadal fat weight", "setting": "[3]; [5]", "result": "1.0948 and 0.4418 and 0.5418 and 0.586 and 0.6631 and 0.6417 and 0.7873 and 0.8763 and 0.4217 and 0.3751 and 0.7101 and 0.437 and 1.2399 and 1.5271"}, {"measurement": "inguinal fa (inguinal fat weight)", "setting": "[3]; [5]", "result": "0.5361 and 0.3262 and 0.2899 and 0.5695 and 0.44 and 0.4775 and 0.4155 and 0.4527 and 0.3306 and 0.2941 and 0.47 and 0.5739 and 0.6454 and 0.6994"}, {"measurement": "liver weight", "setting": "[3]; [5]", "result": "1.4646 and 1.5001 and 1.364 and 1.198 and 1.291 and 1.4569 and 1.3602 and 1.5387 and 1.535 and 1.2853 and 1.4911 and 1.7319 and 1.4367 and 1.4078"}, {"measurement": "mesneteric fat weight", "setting": "[3]; [5]", "result": "0.4239 and 0.1584 and 0.1617 and 0.203 and 0.2549 and 0.1777 and 0.3522 and 0.3152 and 0.191 and 0.1812 and 0.1041 and 0.3498 and 0.3664 and 0.5006"}]}, {"compound": "Cc1[nH]c2nc(C(C)N3CCN(c4ccccc4)CC3)nn2c(=O)c1Cc1ccc(F)cc1", "note": "(stereo not shown) [BPRPT245]", "values": [{"measurement": "Fasting glucose, Average", "setting": "[4]; week 0", "result": 172.4}, {"measurement": "Fasting glucose, Average", "setting": "[4]; week 2", "result": 215}, {"measurement": "Fasting glucose, Average", "setting": "[4]; week 4", "result": 172.4}, {"measurement": "Fasting glucose, Average", "setting": "[4]; week 6", "result": 168.6}, {"measurement": "Fasting glucose, Average", "setting": "[4]; week 8", "result": 182.6}, {"measurement": "Fasting glucose, Average", "setting": "[4]; week 10", "result": 183.2}, {"measurement": "Fasting glucose, Average", "setting": "[4]; week 12", "result": 184.933}, {"measurement": "Fasting glucose, Average", "setting": "[4]; week 14", "result": 181.467}, {"measurement": "Fasting glucose, Average", "setting": "[4]; week 16", "result": 186.667}, {"measurement": "Fasting glucose, Average", "setting": "[4]; week 18", "result": 173.933}, {"measurement": "Fasting glucose, Average", "setting": "[4]; week 20", "result": 159.8}, {"measurement": "Fasting glucose, Average", "setting": "[4]; week 22", "result": 158.933}, {"measurement": "Fasting glucose, Average", "setting": "[4]; week 24", "result": 164.4}, {"measurement": "Figure 5C relative PPARγ trans-activation (replicates)", "setting": "hPTGR2; 16nM", "result": "0.5809 and 0.5894 and 0.6256 and 0.6099 and 0.5702"}, {"measurement": "Figure 5C relative PPARγ trans-activation (replicates)", "setting": "hPTGR2; 80nM", "result": "0.8628 and 0.8769 and 0.8751 and 0.836 and 0.7826"}, {"measurement": "Figure 5C relative PPARγ trans-activation (replicates)", "setting": "hPTGR2; 400nM", "result": "0.9481 and 0.8913 and 0.9158 and 0.7904 and 0.8206"}, {"measurement": "Figure 5C relative PPARγ trans-activation (replicates)", "setting": "hPTGR2; 2uM", "result": "0.9154 and 0.9224 and 0.8575 and 0.8409 and 0.8698"}, {"measurement": "Figure 5C relative PPARγ trans-activation (replicates)", "setting": "hPTGR2; 10uM, (-) Ptgr2 about 1, (+) Ptgr2 alone 0.41-0.61", "result": "0.9406 and 0.9982 and 0.9802 and 0.9197 and 0.9012"}]}]}
